# ChEMBL document CHEMBL1201862, “PubChem BioAssay data set” (2004)
# The source made the active and inactive calls.
# Key:
# [1] = biological target: fMet-Leu-Phe receptor (Homo sapiens, UniProt P21462); assay: FPR ligands, dose response (AID 519); type: functional
# [2] = biological target: T1, Trace amine-associated receptor 1 (Homo sapiens, UniProt Q96RJ0); assay: Counterscreen for agonists of the human trace amine associated receptor 1 (hTAAR1): Fluorescence-based cell-based high throughput dose response assay to identify hTAAR1 agonist that also desensitize TAAR1 receptor response.; type: functional
# T1 sequence (Q96RJ0 whole entry): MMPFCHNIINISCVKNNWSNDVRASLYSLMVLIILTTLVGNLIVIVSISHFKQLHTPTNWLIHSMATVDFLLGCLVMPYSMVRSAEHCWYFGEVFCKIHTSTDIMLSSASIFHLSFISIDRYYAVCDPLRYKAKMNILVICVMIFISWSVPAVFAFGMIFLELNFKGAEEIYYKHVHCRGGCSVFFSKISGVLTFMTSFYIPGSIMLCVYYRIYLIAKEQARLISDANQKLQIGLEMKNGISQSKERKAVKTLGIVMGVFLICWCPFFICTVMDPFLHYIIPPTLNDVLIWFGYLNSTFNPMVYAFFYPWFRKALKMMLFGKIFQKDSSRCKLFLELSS
# [3] = biological target: T2, Short transient receptor potential channel 4 (Mus musculus, UniProt Q9QUQ5); assay: mouse TRPC4 channel activators, dose response, cell-based, HEK293 TRPC4/mu-opioid, Fluo-4 calcium (AID 434937); type: functional
# T2 sequence (Q9QUQ5 whole entry): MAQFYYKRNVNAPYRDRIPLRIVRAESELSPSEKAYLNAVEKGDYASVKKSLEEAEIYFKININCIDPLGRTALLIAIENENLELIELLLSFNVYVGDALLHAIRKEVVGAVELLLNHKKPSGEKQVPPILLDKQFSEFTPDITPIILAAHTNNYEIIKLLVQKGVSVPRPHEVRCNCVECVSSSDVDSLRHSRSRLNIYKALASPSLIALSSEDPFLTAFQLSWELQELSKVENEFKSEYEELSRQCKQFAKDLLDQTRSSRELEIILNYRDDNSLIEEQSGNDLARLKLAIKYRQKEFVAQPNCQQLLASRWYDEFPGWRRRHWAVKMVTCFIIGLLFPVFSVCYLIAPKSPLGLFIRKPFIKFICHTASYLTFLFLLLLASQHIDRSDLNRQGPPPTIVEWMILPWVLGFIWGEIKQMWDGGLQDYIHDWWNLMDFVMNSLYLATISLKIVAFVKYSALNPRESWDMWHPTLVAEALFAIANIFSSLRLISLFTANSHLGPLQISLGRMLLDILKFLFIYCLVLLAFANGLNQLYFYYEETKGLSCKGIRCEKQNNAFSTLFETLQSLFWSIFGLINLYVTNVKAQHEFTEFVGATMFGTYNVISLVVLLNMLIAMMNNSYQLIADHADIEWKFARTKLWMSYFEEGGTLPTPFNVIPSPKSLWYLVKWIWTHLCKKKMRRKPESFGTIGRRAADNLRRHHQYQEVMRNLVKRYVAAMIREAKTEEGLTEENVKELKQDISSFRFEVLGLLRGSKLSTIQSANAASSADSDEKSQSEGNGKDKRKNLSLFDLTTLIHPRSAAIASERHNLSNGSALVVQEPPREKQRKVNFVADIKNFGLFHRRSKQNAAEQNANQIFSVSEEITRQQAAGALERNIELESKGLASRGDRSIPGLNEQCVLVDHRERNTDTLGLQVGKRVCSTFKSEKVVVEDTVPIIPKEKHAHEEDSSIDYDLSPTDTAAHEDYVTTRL
# [4] = cells; type: functional, cell-based
# [5] = biological target: T1, Trace amine-associated receptor 1; assay: Fluorescence-based cell-based high throughput dose response assay to identify agonists of the human trace amine associated receptor 1 (TAAR1).; type: functional
# [6] = cells; type: functional, cell-based; remark: listed apart in the source
# [7] = biological target: Disintegrin and metalloproteinase domain-containing protein 17 (Homo sapiens, UniProt P78536); assay: exosite inhibitors of ADAM17, dose response, biochemical (AID 743260)
# Chain of Disintegrin and metalloproteinase domain-containing protein 17 (P78536 whole entry, the tested form may be a part): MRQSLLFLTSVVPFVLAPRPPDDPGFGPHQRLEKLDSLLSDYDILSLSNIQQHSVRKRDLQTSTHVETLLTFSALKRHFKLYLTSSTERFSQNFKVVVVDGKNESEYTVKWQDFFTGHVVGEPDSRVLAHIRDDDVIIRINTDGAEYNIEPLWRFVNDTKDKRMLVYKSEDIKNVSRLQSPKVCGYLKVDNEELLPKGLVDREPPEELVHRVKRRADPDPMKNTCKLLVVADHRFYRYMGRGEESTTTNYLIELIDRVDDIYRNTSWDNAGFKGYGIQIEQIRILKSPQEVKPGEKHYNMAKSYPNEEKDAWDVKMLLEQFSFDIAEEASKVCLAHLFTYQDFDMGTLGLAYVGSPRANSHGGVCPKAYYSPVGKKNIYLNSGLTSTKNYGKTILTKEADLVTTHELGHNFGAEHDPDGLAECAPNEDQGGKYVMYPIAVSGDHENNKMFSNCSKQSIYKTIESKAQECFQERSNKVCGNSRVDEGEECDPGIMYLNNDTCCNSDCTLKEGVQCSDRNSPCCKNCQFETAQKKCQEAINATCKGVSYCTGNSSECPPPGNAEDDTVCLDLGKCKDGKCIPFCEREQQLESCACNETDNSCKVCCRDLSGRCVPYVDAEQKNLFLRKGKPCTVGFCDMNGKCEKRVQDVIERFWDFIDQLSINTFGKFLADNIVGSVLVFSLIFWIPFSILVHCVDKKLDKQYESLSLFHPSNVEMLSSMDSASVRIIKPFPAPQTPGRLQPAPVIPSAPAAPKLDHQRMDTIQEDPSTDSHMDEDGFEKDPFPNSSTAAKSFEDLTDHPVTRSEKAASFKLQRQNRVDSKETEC
# [8] = ADAM10 protease inhibitors, dose response, selectivity assay for ADAM17 exosite inhibitor project, biochemical, FRET peptide substrate, recombinant human ADAM10 (AID 743259);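 note: ADAM10 enzyme cleaving a FRET peptide substrate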
# [9] = HEK293 cell cytotoxicity, dose response, cytotoxicity control, plate reader, cherry-picked samples (AID 743446); type: functional, cell-based
# [10] = A549 cell cytotoxicity, dose response, cytotoxicity control, plate reader, cherry-pick, antagonist series (AID 743412); type: functional, cell-based
# [11] = human group III sPLA2 inhibitors, dose response, biochemical, QFRET, IC50 (AID 743457);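 note: green fluorescence rise as the enzyme cleaves BODIPY PC-A2 in liposomes; potency for inhibition of the enzyme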
# [12] = biological target: Kallikrein-7 (Homo sapiens, UniProt P49862); assay: Fluorescence Intensity-based biochemical primary high throughput dose response assay to identify activators of kallikrein-7 (K7) zymogen.
# Chain of Kallikrein-7 (P49862 whole entry): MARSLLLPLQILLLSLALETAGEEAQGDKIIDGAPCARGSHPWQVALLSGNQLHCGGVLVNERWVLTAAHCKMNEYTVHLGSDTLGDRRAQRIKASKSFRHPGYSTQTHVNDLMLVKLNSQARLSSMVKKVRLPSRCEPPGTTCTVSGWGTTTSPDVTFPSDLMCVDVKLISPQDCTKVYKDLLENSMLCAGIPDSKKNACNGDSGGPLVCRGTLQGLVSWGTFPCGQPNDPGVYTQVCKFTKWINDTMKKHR
# [13] = cells; conditions: A549
# [14] = biological target: Genome polyprotein (dengue virus type 2, UniProt P29990); assay: Dengue-2 NS5 methyltransferase inhibitors, primary screen, biochemical, confirmation dose response (AID 588689); type: functional
# Chain of Genome polyprotein (P29990 2492-3391 limits assumed): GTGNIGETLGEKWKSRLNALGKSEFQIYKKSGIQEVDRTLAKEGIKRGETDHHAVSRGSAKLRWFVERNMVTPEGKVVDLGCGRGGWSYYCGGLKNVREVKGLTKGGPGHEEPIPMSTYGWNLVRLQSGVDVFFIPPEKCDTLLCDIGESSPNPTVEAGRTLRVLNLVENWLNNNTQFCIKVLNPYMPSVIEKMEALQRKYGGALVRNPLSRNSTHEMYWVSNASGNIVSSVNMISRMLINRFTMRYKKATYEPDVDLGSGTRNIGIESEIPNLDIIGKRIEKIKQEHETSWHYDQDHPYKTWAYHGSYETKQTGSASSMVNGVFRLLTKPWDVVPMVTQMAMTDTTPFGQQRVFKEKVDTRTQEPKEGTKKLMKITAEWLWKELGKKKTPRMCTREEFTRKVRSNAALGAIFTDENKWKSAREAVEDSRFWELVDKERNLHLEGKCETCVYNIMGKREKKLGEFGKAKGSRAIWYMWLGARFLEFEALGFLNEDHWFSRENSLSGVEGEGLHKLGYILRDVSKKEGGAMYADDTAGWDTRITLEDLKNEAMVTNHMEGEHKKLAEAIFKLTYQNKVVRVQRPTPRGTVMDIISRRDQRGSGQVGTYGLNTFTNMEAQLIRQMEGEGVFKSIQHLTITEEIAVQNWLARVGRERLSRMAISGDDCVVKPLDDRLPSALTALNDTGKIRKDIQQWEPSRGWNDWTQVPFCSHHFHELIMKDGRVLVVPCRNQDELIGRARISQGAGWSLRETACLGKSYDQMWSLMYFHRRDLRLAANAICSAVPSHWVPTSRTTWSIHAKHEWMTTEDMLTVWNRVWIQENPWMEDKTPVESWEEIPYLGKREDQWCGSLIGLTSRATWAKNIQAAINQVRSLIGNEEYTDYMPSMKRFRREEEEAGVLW
# [15] = biological target: T3, Heat shock factor protein 1 (Mus musculus, UniProt P38532); assay: HSF1 potentiators in luciferase reporter cells, confirmation, cell-based, NIH3T3, luminescence, dose retest (AID 435004); type: functional;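 note: stress induced by proteasome inhibitor MG132 added 30 min after compound; luciferase reporter driven by HSF1 response element in NIH3T3 cells; actives raise luminescence as potentiators of the MG132 stress response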
# T3 sequence (P38532 whole entry): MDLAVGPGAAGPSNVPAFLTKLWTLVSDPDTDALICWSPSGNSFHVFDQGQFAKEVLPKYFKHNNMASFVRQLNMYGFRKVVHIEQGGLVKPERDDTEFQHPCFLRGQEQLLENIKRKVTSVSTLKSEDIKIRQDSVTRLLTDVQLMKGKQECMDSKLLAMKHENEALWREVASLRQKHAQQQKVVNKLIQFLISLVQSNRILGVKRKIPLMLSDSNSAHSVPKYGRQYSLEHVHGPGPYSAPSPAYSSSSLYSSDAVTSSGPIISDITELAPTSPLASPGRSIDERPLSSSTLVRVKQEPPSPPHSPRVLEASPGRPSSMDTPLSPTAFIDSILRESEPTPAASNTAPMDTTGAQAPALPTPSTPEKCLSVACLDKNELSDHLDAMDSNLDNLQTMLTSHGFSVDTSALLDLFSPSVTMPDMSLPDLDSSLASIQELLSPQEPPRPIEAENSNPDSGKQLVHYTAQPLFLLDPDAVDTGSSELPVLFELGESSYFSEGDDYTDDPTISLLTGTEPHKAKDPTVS
# [16] = biological target: Histone-lysine N-methyltransferase NSD2 (Homo sapiens, UniProt O96028); type: biochemical
# [17] = LGR2 antagonists, dose response, cell-based, HEK293, CRE-luciferase reporter, cherry pick, set 2 (AID 743343); type: functional;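 note: transfected cells were stimulated with diluted bursicon conditioned medium after compound addition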
# [18] = HepG2 cell cytotoxicity, dose response, cytotoxicity control, plate reader, cherry-pick, antagonist series (AID 743416); type: functional, cell-based
# [19] = MC4R antagonists, dose response, counter-screen for LGR2 antagonist project, cell-based, plate reader, cherry pick (AID 743444); type: functional;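 note: transfected HEK 293 cells stimulated with alpha-MSH peptide; potency of inhibitors of the alpha-MSH evoked signal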
# [20] = biological target: Paired box protein Pax-8 (Homo sapiens, UniProt Q06710); assay: inhibitors of PAX8-driven TPO luciferase reporter, dose response, RMG-I cells, cherry-pick (AID 687027); type: functional, cell-based;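 note: luciferase reporter driven by Pax8 target thyroperoxidase promoter measured by SteadyGlo luminescence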
# Chain of Paired box protein Pax-8 (Q06710 whole entry): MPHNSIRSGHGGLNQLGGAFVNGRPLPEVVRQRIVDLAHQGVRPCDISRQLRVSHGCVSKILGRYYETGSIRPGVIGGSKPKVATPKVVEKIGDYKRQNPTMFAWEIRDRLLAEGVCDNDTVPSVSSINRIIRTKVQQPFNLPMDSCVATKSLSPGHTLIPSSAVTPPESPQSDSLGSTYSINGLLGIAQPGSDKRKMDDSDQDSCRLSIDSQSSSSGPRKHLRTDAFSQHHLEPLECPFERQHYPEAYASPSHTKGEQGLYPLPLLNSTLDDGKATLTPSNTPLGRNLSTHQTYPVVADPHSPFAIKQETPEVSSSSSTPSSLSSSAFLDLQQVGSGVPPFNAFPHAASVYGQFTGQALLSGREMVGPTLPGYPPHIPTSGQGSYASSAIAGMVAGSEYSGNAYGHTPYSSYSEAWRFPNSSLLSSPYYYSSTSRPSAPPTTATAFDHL
# [21] = NIH:OVCAR-3 ovarian cancer cell cytotoxicity, dose response, PAX8 inhibitor project, plate reader, dry powder samples (AID 743044); type: functional, cell-based
# [22] = cytotoxicity in OVCAR8 ovarian cancer cells, dose response, PAX8 project, cell-based, plate reader, dry powder samples (AID 743197); type: functional; conditions: OVCAR-8
# [23] = non-specific cell cytotoxicity, dose response, cytotoxicity control for PAX8 inhibitor project, plate reader, dry powder samples (AID 743021); type: functional, cell-based
# [24] = biological target: Endoplasmic reticulum aminopeptidase 1 (Homo sapiens, UniProt Q9NZ08); assay: ERAP1 aminopeptidase inhibitors, dose response, biochemical, cherry-pick, set 2, plate reader (AID 743314)
# Chain of Endoplasmic reticulum aminopeptidase 1 (Q9NZ08 whole entry): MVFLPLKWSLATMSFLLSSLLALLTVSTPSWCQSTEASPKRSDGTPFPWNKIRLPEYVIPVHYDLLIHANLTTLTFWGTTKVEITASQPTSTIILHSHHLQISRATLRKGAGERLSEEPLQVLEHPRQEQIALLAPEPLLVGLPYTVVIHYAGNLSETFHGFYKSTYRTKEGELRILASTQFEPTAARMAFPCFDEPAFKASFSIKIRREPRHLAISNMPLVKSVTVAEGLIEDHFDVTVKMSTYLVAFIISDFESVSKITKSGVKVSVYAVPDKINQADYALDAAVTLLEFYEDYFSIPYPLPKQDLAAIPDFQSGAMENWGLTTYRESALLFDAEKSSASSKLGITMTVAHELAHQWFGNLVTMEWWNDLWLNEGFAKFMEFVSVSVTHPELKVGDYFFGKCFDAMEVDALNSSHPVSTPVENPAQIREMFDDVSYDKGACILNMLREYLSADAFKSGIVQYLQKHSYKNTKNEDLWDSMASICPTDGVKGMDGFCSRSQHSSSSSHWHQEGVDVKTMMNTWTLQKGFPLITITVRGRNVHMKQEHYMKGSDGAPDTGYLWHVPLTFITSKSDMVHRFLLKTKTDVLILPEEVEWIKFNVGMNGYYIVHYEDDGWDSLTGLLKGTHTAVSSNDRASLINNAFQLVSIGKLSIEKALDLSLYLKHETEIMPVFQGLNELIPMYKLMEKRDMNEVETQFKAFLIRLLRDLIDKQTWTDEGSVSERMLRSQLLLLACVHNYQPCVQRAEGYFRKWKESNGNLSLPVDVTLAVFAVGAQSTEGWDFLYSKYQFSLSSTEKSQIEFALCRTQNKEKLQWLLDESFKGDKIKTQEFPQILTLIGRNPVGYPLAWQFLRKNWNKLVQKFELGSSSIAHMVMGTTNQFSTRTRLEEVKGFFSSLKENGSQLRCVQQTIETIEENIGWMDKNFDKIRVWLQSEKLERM
# [25] = P. falciparum Dd2 growth inhibitors, dose response, SYBR Green, dry powder samples (AID 1159566); type: functional, cell-based;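 note: potency for growth inhibition with lower SYBR green DNA signal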
# [26] = HepG2 cell cytotoxicity, dose response, cytotoxicity control, plate reader, dry powder samples (AID 1159569); type: functional, cell-based;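 note: inhibitor potency with signal falling toward the positive control level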
# [27] = P. falciparum 3D7-ScDHODH growth inhibitors, dose response, SYBR Green, dry powder samples (AID 1159570); type: functional, cell-based;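 note: parasite growth measured after 72 hours of compound exposure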
# [28] = P. falciparum ATP4 D1247Y mutant growth inhibitors, dose response, NITD609-resistant line, SYBR Green, dry powder (AID 1159571); type: functional, cell-based;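 note: parasites synchronized at ring stage by sorbitol before testing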
# [29] = P. falciparum Dd2 growth inhibitors, dose response, SYBR Green, cherry-picked samples (AID 1159567); type: functional, cell-based
# [30] = HeLa 4N DNA content increase, dose response, cell-based, IC50 (AID 1117351); type: functional
# [31] = HeLa 2N DNA content increase, dose response, cell-based, IC50 (AID 1117349); type: functional
# [32] = SNU-C1 cell viability reduction, dose response, CellTiter-Glo luminescence (AID 1117323); type: functional, cell-based
# [33] = cytotoxicity toward Colo320 cells – cell-based, CellTiter-Glo luminescence, IC50, dose response (AID 1117334); type: functional; conditions: COLO 320
# [34] = cytotoxicity toward HCT116 cells – cell-based, CellTiter-Glo luminescence, IC50, dose response (AID 1117332); type: functional; conditions: HCT-116
# [35] = cytotoxicity toward HT-29 cells – cell-based, CellTiter-Glo luminescence, IC50, dose response (AID 1117330); type: functional
# [36] = RKO cell viability reduction, dose response, CellTiter-Glo luminescence (AID 1117322); type: functional
# [37] = Concentration-dependent survival of SW480 colon cancer line, luminescence detection with CellTiter-Glo, half-maximal inhibitory concentration (AID 1117338); type: functional
# [38] = CellTiter-Glo luminescent dose response of DLD-1 viability loss (AID 1117352); type: functional
# [39] = Dose-response inhibition of insulin secretion in a rat insulinoma line at 5 mM glucose (AID 1117331); type: functional, cell-based; conditions: INS-1E
# Chain of fMet-Leu-Phe receptor (P21462 whole entry): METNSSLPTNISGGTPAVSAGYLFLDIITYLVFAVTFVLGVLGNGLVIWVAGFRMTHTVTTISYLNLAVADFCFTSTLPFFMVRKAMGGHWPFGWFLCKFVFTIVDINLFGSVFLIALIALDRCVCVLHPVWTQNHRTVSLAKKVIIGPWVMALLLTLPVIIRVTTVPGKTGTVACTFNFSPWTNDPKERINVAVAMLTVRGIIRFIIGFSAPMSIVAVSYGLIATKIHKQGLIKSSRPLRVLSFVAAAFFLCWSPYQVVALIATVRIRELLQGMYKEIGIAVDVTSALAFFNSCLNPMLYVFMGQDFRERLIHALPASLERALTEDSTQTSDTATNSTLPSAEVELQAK
compound,measurement,setting,value
COCCCN1C(=O)C(O)=C(C(=O)c2ccco2)C1c1cccc(Br)c1 (centres undefined),Ki,[1],31.2 µM (inactive)
CCOC(=O)C1CCCN(C(c2ccccn2)c2c(C)[nH]c3ccccc23)C1 (centres undefined),IC50,[2],2.65 µM (active)
same,EC50,[3],5.31 µM (active)
same,EC50,[4],> 29.9 µM (inactive)
same,EC50,[5],22.3 µM (inactive)
same,IC50,[6],> 29.9 µM (inactive)
CC(=O)n1cc([C@@H]2C=C(C(=O)Nc3ccccc3)O[C@H](OCc3ccc(CO)cc3)C2)c2ccccc21,IC50,[7],> 69.5 µM (inactive)
same,IC50,[8],> 69.5 µM (inactive)
O=c1cc(-c2c(F)c(F)c(F)c(F)c2F)oc2ccccc12,AC50,[9],37.5 µM (active)
same,AC50,[10],17.4 µM (active)
CCOc1ccc(-n2c(N)c(-c3nc4ccccc4[nH]3)sc2=S)cc1,IC50,[11],> 122 µM (inactive)
Nc1ccc(Cl)cc1C(=O)OCC(=O)NC1CCS(=O)(=O)C1 (centres undefined),EC50,[12],> 7.72 µM (active)
Cc1cc(N2C(=O)C(O)=C(C(=O)c3ccc(F)cc3)C2c2cccc(Br)c2)no1 (centres undefined),Ki,[1],> 66.7 µM (inactive)
COc1cc(C2C3=C(CC(C)(C)CC3=O)N(C)C3=C2C(=O)CC(C)(C)C3)cc(Br)c1O,AC50,[13],> 52 µM (inactive)
O=C(O)CN1C(=O)/C(=C\c2cc(Br)ccc2OCc2ccc(F)cc2)SC1=S,IC50,[14],31.4 µM (active)
same,EC50,[15],> 260 µM (inactive)
same,AC50,[16],18.5 µM (active)
COc1cc(OC)nc(Nc2nc(C(N)Cc3ccc(C(F)(F)F)cc3)cs2)n1 (centres undefined),AC50,[9],15.7 µM (active)
same,AC50,[17],18.9 µM (active)
same,AC50,[18],7.18 µM (active)
same,AC50,[10],7.58 µM (active)
same,AC50,[19],24.8 µM (active)
Cc1cccc(/C=N/c2ccccc2C(N)=O)c1,EC50,[12],> 69.5 µM (inactive)
CN(C)CC(=O)N1CCCCN2[C@H](CO)[C@H](c3ccc(/C=C/c4ccccc4)cc3)[C@H]2C1,AC50,[20],9.31 µM (active)
same,AC50,[21],47.6 µM (active)
same,AC50,[22],69.1 µM (active)
same,AC50,[23],42.9 µM (active)
COCC(=O)N1[C@@H]2c3ccc(/C=C/c4ccccc4)c(=O)n3C[C@H]1[C@H](CO)[C@H]2C(=O)N1CCOCC1,AC50,[24],4.85 µM (active)
C/C(=N\NC(=O)CC#N)c1cc2ccc(O)cc2oc1=O,AC50,[24],6.38 µM (active)
C[C@H]1CN([C@@H](C)CO)C(=O)c2c(c3ccccc3n2C)-c2ccccc2CO[C@H]1CN(C)C(=O)Nc1cccc(Cl)c1Cl,AC50,[25],0.785 µM (active)
same,AC50,[26],18.7 µM (active)
same,AC50,[27],1.77 µM (active)
same,AC50,[28],0.897 µM (active)
same,AC50,[29],3.09 µM (active)
O=S(=O)(c1ccc(F)cc1)N1CCCCN2[C@@H](CO)[C@@H](c3ccc(C4=CCCCC4)cc3)[C@@H]2C1,AC50,[25],1.07 µM (active)
same,AC50,[26],12.8 µM (active)
same,AC50,[27],1.15 µM (active)
same,AC50,[28],0.915 µM (active)
same,AC50,[29],1.69 µM (active)
C1CN(P2(N3CC3)=NP(N3CC3)(N3CC3)=NP(N3CC3)(N3CC3)=N2)CCO1 (centres undefined) [FOTRETAMINE],IC50,[30],> 10 µM (inactive)
same,IC50,[31],> 10 µM (inactive)
Cc1onc(-c2ccccc2)c1-c1ccc(S(N)(=O)=O)cc1 [VALDECOXIB],IC50,[32],> 20 µM (inactive)
same,IC50,[33],> 20 µM (inactive)
same,IC50,[34],> 20 µM (inactive)
same,IC50,[35],> 20 µM (inactive)
same,IC50,[36],> 20 µM (inactive)
same,IC50,[37],> 20 µM (inactive)
same,IC50,[38],> 20 µM (inactive)
CCCC(CCC)C(=O)O [VALPROIC ACID],IC50,[39],> 33.3 µM (inactive)
